In patent US20260226101A1, “PEPTIDE WITH ANTI-INFLAMMATORY AND ANTI-MICROBIAL ACTIVITY” (priority 2023, published 2026):

Assay: in vitro
Type: cell-based, murine
Conditions: mouse
Experimental: Cell viability of synthetic peptides on the growth of RAW264.7 cells was measured using the methyl thiazolyl tetrazolium (MTT) assay after 48 h. Briefly, exponentially growing macrophages RAW264.7 cells were mechanically scraped, plated at a density of 7×10^3 cells in 100 μl were seeded into each well of a 96-well plate then incubated for 12 h at 37° C. under 5% CO2, and then the cells are treated with test peptides: IS 111 ([…]) or dexamethasone ([…]) cells were incubated at 37° C. in the presence of 5% CO2 for 42 h. After incubation, the morphology of cells was examined under a microscope. Following incubation, MTT was added to the cells (20 μL at 5 mg/mL MTT dissolved in 1×PBS) and incubated for 4 hours in the presence of 5% CO2 at 37° C. Formazan crystals were dissolved by the addition of 100 μL of 100% DMSO per well. Plates were then gently swirled for 5 min at room temperature to dissolve the precipitate. Absorbance was monitored at 575 nm using a microplate reader. Maximum cytotoxicity (100%) was determined by cells incubated with 1% Triton X-100; PBS was used as a negative control. Cells without treatment were considered as control. The average absorbance for each sample group was used to evaluate cell viability.
Optical density (O.D.) was calculated as the difference between the absorbance at the reference wavelength and that at the test wavelength. The relative cell viability was determined by the amount of MTT converted to the insoluble formazan salt. The data were expressed as the mean percentage of viable cells when compared with untreated cells (control). The half maximal growth inhibitory concentration (IC50) value was calculated from the line equation of the dose-dependent curve of each compound. The results were compared with the cytotoxic activity of dexamethasone, a known anti-inflammatory drug. […] Percentages of cell viability and LC50 of cells were calculated: Percent cell viability was calculated as (O.D. of drug-treated sample/control O.D.)×100. The data were expressed as percent cell viability compared with control (dimethyl sulfoxide/NS). The experiment was carried out in four samples of each concentration.
The percentages of cell viability and LC50 of cells were calculated by using the formula below.
Where Absorbance control is the DMSO 0.1%-treated cell absorbance, and Absorbance sample is the test sample-treated cell absorbance. LC50 values were derived from dose-response curves, and data were expressed as the mean of three independent experiments. Statistical analyses involved Student's t-test and one-way ANOVA.
The test peptide IS 111 cytotoxic effects on RAW 264.7 mouse […] were determined by MTT assay. […] Cell viability was measured by MTT assay based on the conversion of yellow tetrazolium salt to form a purple formazan product. The viability of the RAW 264.7 cells can be seen on table 21.

C[C@@H]1C[C@H]2[C@@H]3CCC4=CC(=O)C=C[C@]4(C)[C@@]3(F)[C@@H](O)C[C@]2(C)[C@@]1(O)C(=O)CO [Dexamethasone, dexamethasone, reference compound]
viability at 48 h, 7.8125 µg/mL: 102% | viability at 48 h, 15.625 µg/mL: 90% | viability at 48 h, 31.25 µg/mL: 82.8% | viability at 48 h, 62.5 µg/mL: 91.4% | viability at 48 h, 125 µg/mL: 96% | viability at 48 h, 250 µg/mL: 90.8% | viability at 48 h, 500 µg/mL: 84.6%
